From patent publication US9376425B2, “Heterocyclic compounds as MDM2 inhibitors for the treatment of cancer” (AMGEN INC., priority 2011, dated 2016)

Molecular target: T1, human MDM2 (GST-hMDM2 aa 1-188), interaction with biotinylated-p53 (aa 1-83) (Homo sapiens, UniProt Q00987)
T1 construct: Amino acid residues 1-188 of human MDM2 were expressed; made in house; host or cells: Escherichia coli
Test: Homogenous Time-Resolved Fluorescence Assay (HTRF1 assay), inhibition of HDM2-p53 interaction
Type: binding
Conditions: 2.5 nM GST-hMDM2, 5 nM biotinylated-p53, 200 mM KF
Protocol: Homogenous Time-Resolved Fluorescence Assay (HTRF1 Assay)
Residues 1-83 of human p53 were expressed as an amino-terminal AviTag™-TrxA-6xHis fusion protein (biotinylated p53) in E. coli. Each protein was purified from cell paste by affinity chromatography.
Specifically, 10 uL of GST-hMDM2 was incubated with 10 ul of diluted compound (various concentrations, serially diluted) in 10% DMSO for 20 minutes at room temperature. 20 uL of biotinylated-p53 was added to the GST-hMDM2+ compound mixture, and then incubated at room temperature for 60 min. 10 uL of detection buffer consisting of SA-XLent, anti-GST cryptate antibody and KF was added to GST-hMDM2, biotinylated-p53 and compound reaction and left at room temperature to reach equilibrium for >4 hrs. The final concentration of DMSO in the reaction was 2%. Time-resolved fluorescence readings were measured on a microplate multilabel reader. Percentage of inhibition was calculated relative to nutlin-3.

T1 sequence (Q00987 1-188): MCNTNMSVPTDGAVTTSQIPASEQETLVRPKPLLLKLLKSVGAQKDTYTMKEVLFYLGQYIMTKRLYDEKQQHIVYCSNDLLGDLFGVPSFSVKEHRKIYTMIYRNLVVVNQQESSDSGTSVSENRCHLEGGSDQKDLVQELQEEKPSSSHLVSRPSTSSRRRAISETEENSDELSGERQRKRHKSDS

Structure (SMILES)	IC50
O=C(O)/C=C1\O[C@H](c2cccc(Cl)c2)[C@@H](c2ccc(Cl)cc2)N(CC2CC2)C1=O (single isomer, unassigned; isomer 1) [Example 51, (Z)-2-((5R,6R)-6-(3-Chlorophenyl)-5-(4-chlorophenyl)-4-(cyclopropylmethyl)-3-oxomorpholin-2-ylidene)acetic acid or (E)-2-((5R,6R)-6-(3-Chlorophenyl)-5-(4-chlorophenyl)-4-(cyclopropylmethyl)-3-oxomorpholin-2-ylidene)acetic acid (Isomer 1)]	600 nM
O=C(O)/C=C1/O[C@H](c2cccc(Cl)c2)[C@@H](c2ccc(Cl)cc2)N(CC2CC2)C1=O (single isomer, unassigned; isomer 2) [Example 52, (E)-2-((5R,6R)-6-(3-Chlorophenyl)-5-(4-chlorophenyl)-4-(cyclopropylmethyl)-3-oxomorpholin-2-ylidene)acetic acid or (Z)-2-((5R,6R)-6-(3-Chlorophenyl)-5-(4-chlorophenyl)-4-(cyclopropylmethyl)-3-oxomorpholin-2-ylidene)acetic acid (Isomer 2)]	19700 nM
O=C(O)C[C@@H]1O[C@H](c2cccc(Cl)c2)[C@@H](c2ccc(Cl)cc2)N(CCC(F)(F)F)C1=O [Example 11, 2-((2S,5R,6R)-6-(3-Chlorophenyl)-5-(4-chlorophenyl)-3-oxo-4-(3,3,3-trifluoropropyl)morpholin-2-yl)acetic acid]	600 nM
O=C(O)C[C@@H]1O[C@H](c2cccc(Cl)c2)[C@@H](c2ccc(Cl)cc2)N(C2CCC2)C1=O [Example 12, 2-((2S,5R,6R)-6-(3-Chlorophenyl)-5-(4-chlorophenyl)-4-cyclobutyl-3-oxomorpholin-2-yl)acetic acid]	900 nM
O=C(O)C[C@@H]1O[C@H](c2cccc(Cl)c2)[C@@H](c2ccc(Cl)cc2)N(C2CCCC2)C1=O [Example 14, 2-((2S,5R,6R)-6-(3-Chlorophenyl)-5-(4-chlorophenyl)-4-cyclopentyl-3-oxomorpholin-2-yl)acetic acid]	300 nM
O=C(O)C[C@H]1O[C@H](c2cccc(Cl)c2)[C@@H](c2ccc(Cl)cc2)N(C2CCCC2)C1=O [Example 15, 2-((2R,5R,6R)-6-(3-chlorophenyl)-5-(4-chlorophenyl)-4-cyclopentyl-3-oxomorpholin-2-yl)acetic acid]	300 nM
O=C(O)C[C@@H]1O[C@H](c2cccc(Cl)c2)[C@@H](c2ccc(Cl)cc2)N(C2CCCCC2)C1=O [Example 16, 2-((2S,5R,6R)-6-(3-Chlorophenyl)-5-(4-chlorophenyl)-4-cyclohexyl-3-oxomorpholin-2-yl)acetic acid]	300 nM
O=C(O)C[C@H]1O[C@H](c2cccc(Cl)c2)[C@@H](c2ccc(Cl)cc2)N(C2CCCCC2)C1=O [Example 17, 2-((2R,5R,6R)-6-(3-Chlorophenyl)-5-(4-chlorophenyl)-4-cyclohexyl-3-oxomorpholin-2-yl)acetic acid]	200 nM
C[C@H](C1CCC1)N1C(=O)[C@@H](CC(=O)O)O[C@H](c2cccc(Cl)c2)[C@H]1c1ccc(Cl)cc1 [Example 20, 2-((2R,5R,6R)-6-(3-Chlorophenyl)-5-(4-chlorophenyl)-4-((R)-1-cyclobutylethyl)-3-oxomorpholin-2-yl)acetic acid]	300 nM
C[C@H](C1CCC1)N1C(=O)[C@H](CC(=O)O)O[C@H](c2cccc(Cl)c2)[C@H]1c1ccc(Cl)cc1 [Example 21, 2-((2S,5R,6R)-6-(3-Chlorophenyl)-5-(4-chlorophenyl)-4-((R)-1-cyclobutylethyl)-3-oxomorpholin-2-yl)acetic acid]	300 nM
C[C@@H](C1CCC1)N1C(=O)[C@@H](CC(=O)O)O[C@H](c2cccc(Cl)c2)[C@H]1c1ccc(Cl)cc1 [Example 22, 2-((2R,5R,6R)-6-(3-Chlorophenyl)-5-(4-chlorophenyl)-4-((S)-1-cyclobutylethyl)-3-oxomorpholin-2-yl)acetic acid]	500 nM
C[C@@H](C1CCC1)N1C(=O)[C@H](CC(=O)O)O[C@H](c2cccc(Cl)c2)[C@H]1c1ccc(Cl)cc1 [Example 23, 2-((2S,5R,6R)-6-(3-Chlorophenyl)-5-(4-chlorophenyl)-4-((S)-1-cyclobutylethyl)-3-oxomorpholin-2-yl)acetic acid]	300 nM

Next, values leading:

IC50	Structure (SMILES)
1800 nM	N#Cc1cc(F)cc([C@H]2OC(CC(=O)O)C(=O)N(CC3CC3)[C@@H]2c2ccc(Cl)cc2)c1 (single isomer, unassigned) [Example 98]
1100 nM	N#Cc1cc(F)cc([C@H]2OC(CC(=O)O)C(=O)N(CC3CC3)[C@@H]2c2ccc(Cl)cc2)c1 (single isomer, unassigned) [Example 99]
1100 nM	O=C(O)CC1O[C@H](c2cc(Cl)ccc2F)[C@@H](c2ccc(Cl)cc2)N(CC2CC2)C1=O (single isomer, unassigned) [Example 100]
600 nM	O=C(O)CC1O[C@H](c2cc(Cl)ccc2F)[C@@H](c2ccc(Cl)cc2)N(CC2CC2)C1=O (single isomer, unassigned) [Example 101]
6500 nM	Cc1cccc([C@H]2OC(CC(=O)O)C(=O)N(CC3CC3)[C@@H]2c2ccc(Cl)cc2)c1 (single isomer, unassigned) [Example 102]
3400 nM	Cc1cccc([C@H]2OC(CC(=O)O)C(=O)N(CC3CC3)[C@@H]2c2ccc(Cl)cc2)c1 (single isomer, unassigned) [Example 103]
500 nM	O=C(O)CC1O[C@H](c2cc(Cl)cc(Br)c2)[C@@H](c2ccc(Cl)cc2)N(CC2CC2)C1=O (single isomer, unassigned) [Example 104]
300 nM	O=C(O)CC1O[C@H](c2cc(Cl)cc(Br)c2)[C@@H](c2ccc(Cl)cc2)N(CC2CC2)C1=O (single isomer, unassigned) [Example 105]
5200 nM	O=C(O)C[C@H]1O[C@H](c2cc(Cl)cc(-c3cn[nH]c3)c2)[C@@H](c2ccc(Cl)cc2)N(CC2CC2)C1=O (single isomer, unassigned) [Example 106]
3800 nM	O=C(O)C[C@@H]1O[C@H](c2cc(Cl)cc(-c3cn[nH]c3)c2)[C@@H](c2ccc(Cl)cc2)N(CC2CC2)C1=O (single isomer, unassigned) [Example 107]
4300 nM	O=C(O)C[C@H]1O[C@H](c2cc(Cl)cc(-c3cncnc3)c2)[C@@H](c2ccc(Cl)cc2)N(CC2CC2)C1=O (single isomer, unassigned) [Example 108]
2800 nM	O=C(O)C[C@@H]1O[C@H](c2cc(Cl)cc(-c3cncnc3)c2)[C@@H](c2ccc(Cl)cc2)N(CC2CC2)C1=O (single isomer, unassigned) [Example 109]
3700 nM	CS(=O)(=O)c1cc(Cl)cc([C@H]2O[C@H](CC(=O)O)C(=O)N(CC3CC3)[C@@H]2c2ccc(Cl)cc2)c1 (single isomer, unassigned) [Example 110]
2300 nM	CS(=O)(=O)c1cc(Cl)cc([C@H]2O[C@@H](CC(=O)O)C(=O)N(CC3CC3)[C@@H]2c2ccc(Cl)cc2)c1 (single isomer, unassigned) [Example 111]
700 nM	O=C(O)C[C@H]1O[C@H](c2cccc(Cl)c2)[C@@H](c2ccc(Cl)cc2)N(C2CCC2)C1=O [Example 13, 2-((2R,5R,6R)-6-(3-Chlorophenyl)-5-(4-chlorophenyl)-4-cyclobutyl-3-oxomorpholin-2-yl)acetic acid]
